Data on 6 molecules can be found in patent publication US12049583B2, “Compound, composition for anisotropic dye films including the compound, anisotropic dye film, and optical element” (Mitsubishi Chemical Corporation, priority 2020, dated 2024).

Data set [1] in a line: Solubility of the dye in cyclopentanone (concentration of cyclopentanone-saturated solution by HPLC). It counts as physicochemical. How it is done:
To 103 mg of cyclopentanone, 3 mg of the dye (IV-1) was added, and the resulting mixture was stirred at 80° C. for 5 minutes. The mixture was left to stand for 1 hour at room temperature. The resulting liquid mixture was filtered with a syringe equipped with a syringe filter (produced by Membrane Solutions Limited, PTFE13045, diameter: 0.45 μm). Hereby, a cyclopentanone-saturated solution of the dye (IV-1) was prepared. The above solution was diluted with 746 mg of tetrahydrofuran, and the concentration of the solution was determined using HPLC (L-2300 Series produced by Hitachi High-Technologies Corporation). A 0.1-mass % tetrahydrofuran solution of the dye (IV-1) was prepared, and a calibration curve was prepared at an absorption wavelength of 254 nm. The concentration of the cyclopentanone-saturated solution was measured using the above calibration curve.

Data set [2] can be described thus: Solubility of the dye in toluene (concentration of toluene-saturated solution by HPLC). It counts as physicochemical. How it is done: To 101 mg of toluene, 3 mg of the dye (II-1) was added, and the resulting mixture was stirred at 80° C. for 5 minutes. The mixture was left to stand for 1 hour at room temperature. The resulting liquid mixture was filtered with a syringe equipped with a syringe filter (produced by Membrane Solutions Limited, PTFE13045, diameter: 0.45 μm). Hereby, a toluene-saturated solution of the dye (II-1) was prepared. The above solution was diluted with 767 mg of tetrahydrofuran, and the concentration of the solution was determined using HPLC (L-2300 Series produced by Hitachi High-Technologies Corporation). A 0.1-mass % tetrahydrofuran solution of the dye (II-1) was prepared, and a calibration curve was prepared at an absorption wavelength of 254 nm. Table 1 lists the results of measurement of the concentration of the toluene-saturated solution using the above calibration curve.

[3] abbreviates: cyclopentanone-saturated solution, stirred at 80° C. 5 min, left 1 hour at room temperature, filtered, HPLC 254 nm.
The mark [4] stands for this setting: toluene-saturated solution, stirred at 80° C. 5 min, left 1 hour at room temperature, filtered, HPLC 254 nm.

Take `CCCCSc1nnc(/N=N/c2ccc(/N=N/c3ccc(N(CC)CC)cc3)cc2)s1` [IV-2]: in data set [1] (setting [3]), the “Solubility of the dye in cyclopentanone” value turned out to be 2.2 mass %.

For the molecule `CCN(CC)c1ccc(/N=N/c2nc3sc(/N=N/c4ccc(OCCC(C)CC(C)(C)C)cc4)cc3s2)cc1` (centres unmarked) [II-3], the “Solubility of the dye in cyclopentanone” value in data set [1] (setting [3]) is on record as 0.3 mass %; in data set [1] (measured as for dye (IV-1), detection absorption wavelength 254 nm) it was 0.3%.

On to `CCN(CC)c1ccc(/N=N/c2ccc(/N=N/c3nc4sc(CCC(C)CC(C)(C)C)cc4s3)cc2)cc1` (centres unmarked) [II-1], for which the “Solubility of the dye in toluene” value in data set [2] (setting [4]) is listed as 0.5 mass %.

For the molecule `CCN(CC)c1ccc(/N=N/c2ccc(/N=N/c3cc(C)ns3)cc2)cc1` [IV-4], in data set [1] (setting [3]), the “Solubility of the dye in cyclopentanone” value is reported as 1.8 mass %.

Turning to `CCN(CC)c1ccc(/N=N/c2ccc(/N=N/c3nc4sc(CCC(C)C)cc4s3)cc2)cc1` [II-2], the “Solubility of the dye in toluene” value in data set [2] (measured as for dye (II-1), detection absorption wavelength 254 nm) worked out at 0.7%; in data set [2] (setting [4]) it was 0.7 mass %.

`CCN(CC)c1ccc(/N=N/c2ccc(/N=N/c3sc(C)cc3C#N)cc2)cc1` [IV-3]: in data set [1] (setting [3]), the “Solubility of the dye in cyclopentanone” value was 2.7 mass %.
